Laboratory results reported in US11013745B2, “Triazolopyrimidine, triazolopyridine compounds, and the composition thereof for treating PRC2-mediated diseases” (SHANGHAI INSTITUTE OF MATERIA MEDICA, CHINESE ACADEMY OF …, priority 2017, dated 2021).
Where two headings read alike, the source gives them in different places. Values belong to the compound of their own block, whether it stands above or below them.

Experiments:
Pfeiffer cells [1] = assay: Pfeiffer cell growth inhibition in a long term (11 days), CellTiter-Glo; type: cell-based, Human; settings: Homo sapiens, 264 h, read-out: Experiment on Pfeiffer cell growth inhibition in a long term (11 days IC50)
Outline: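 Exponentially growing cells seeded at 1*10E5 cells/mL and treated the same day with a concentration range. Media and compound were refreshed at days 4 and 7. Viability was read by CellTiter-Glo after 11 days and GI50 values were derived.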

Karpas-422 cells = assay: Growth inhibition of Karpas-422 cells in a long term (11 days), CellTiter-Glo; type: cell-based, Human; settings: Homo sapiens, read-out: Karpas-422 (11 days) IC50
[2] = Oral pharmacokinetics in rats; type: in vivo; settings: male, SD, plasma, rat, intragastric, 3 mg/kg; for AUC(0-inf): extrapolated to infinity, read-out: AUCINF_obs; for MRT inf: read-out: Average residence time MRTINF_obs; for half-life: read-out: Half life T1/2 (converted); for Cmax: read-out: Peak concentration Cmax
Experimental: 1. Healthy male SD rats were used as test animals, EED226, […]-07 (3 mg/kg) were administered intragastrically, and the drug concentrations in rat plasma were determined by LC/MS/MS method at different time points after drug administration. The pharmacokinetic behavior of the compounds of the present invention in rats was studied, and the pharmacokinetic properties were evaluated. 2. The test animals were healthy adult male SD rats, with 3 rats in each group, purchased from Shanghai Xipuer-Bikai Laboratory Animal Limited Company. 3. Drug preparation: Compounds EED226, […] were dissolved in DMSO/0.5% HPMC (5/95, v/v) for preparation. The compound SL-ZYE-07 was dissolved in 0.5% HPMC (containing 0.5% Tween 80), vortexed, and sonicated to disperse the solid matter uniformly to obtain a pale white suspension. 4, Operation: EED226, […]-07 were administered to rats by intragastric administration (3 mg/kg), 45 μL of blood was taken through the femoral vein at 0.25, 0.5, 1, 2, 4, 8, 24 hour after administration, and centrifuged in a heparinized centrifuge tube for 5 min, and the plasma samples were separated for analysis. The contents of test compounds in rat plasma after intragastric administration of different compounds were determined by Liquid chromatography-mass spectrometry (LC-MS/MS).

Pfeiffer cells [3] = assay: Growth inhibition of Pfeiffer cells in a long term (14 days), CellTiter-Glo; type: cell-based, Human; settings: Homo sapiens, 336 h, read-out: Pfeiffer (14 days) IC50
Experimental: In a CO2 cell incubator (37° C., 5% CO2), Human diffuse large B-cell lymphoma (DLBCL) cell line, pfeiffer (obtained from ATCC, CRL-2632) were incubated with RPMI 1640 medium (Gibco, purchased from Life Technologies, 22400-089) containing 10% fetal bovine serum (Gibco, purchased from Life Technologies, 10099-141) and 1% antibiotics (penicillin and streptomycin, purchased from Life Technologies, 10378016). […] After seeding the cells, they were placed in a CO2 incubator and allowed to stand for 1 hour. In a 24-well plate containing cells, 2 μL of three-fold gradient of the compounds at 9 different concentrations or DMSO were added to each well, such that the final concentration of the compounds was 0.003-20 μM or 0.3-2000 nM, and the final concentration of DMSO was 0.2%. At day 4, day 7, and day 11 of compound treatment, the fresh medium and compounds were changed, and the cell density of the DMSO control well was diluted to 2*10E5 cells/mL. The cell dilution ratio for other compound wells was the same as that of the DMSO control well. Cell viability was determined by using CellTiter-Glo reagent (purchased from Promega Inc., G7572): cells treated with the compounds for 14 days were transferred to a white 384-well plate (OptiPlate-384, purchased from PerkinElmer, 6007299) at 40 μL/well, an equal volume of CellTiter-Glo reagent was further added. After incubating at room temperature for 10 min, the cold luminescence signal was detected with a multifunctional microplate reader EnVision (PerkinElmer) at a wavelength of 400 to 700 nm. Data were analyzed using GraphPad Prism 5.0 software, and IC50 values were obtained.

PRC2 enzyme = PRC2 enzyme (Homo sapiens (Human), UniProt O75530); assay: PRC2 enzyme activity, TR-FRET method; type: biochemical
Outline: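 Enzyme preincubated with compound 30 min at room temperature; reaction started with biotin-labeled histone H3 peptide and SAM, run 4 h at room temperature.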

SU-DHL-4 cells = assay: Growth inhibition of SU-DHL-4 cells in a long term (11 days), CellTiter-Glo; type: cell-based, Human; settings: Homo sapiens, read-out: SU-DHL-4 (11 days) IC50
[4] = Liver microsomal stability (rat); type: in vitro ADME
Outline: (§1)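 Human, mouse and rat liver microsomes were incubated with NADPH and MgCl2 in 0.1 M Tris pH 7.4, with compound at a 0.2 μM working solution. Remaining compound was quantified by LC/MS over the incubation time. The slope of log remaining versus time gave Clint, which was scaled to predicted Cl, Clhep and % MF.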

[5] = Liver microsomal stability (mouse); type: in vitro ADME
[6] = Liver microsomal stability (human); type: in vitro ADME
Outline: as §1

Sequence of PRC2 enzyme (O75530 whole entry): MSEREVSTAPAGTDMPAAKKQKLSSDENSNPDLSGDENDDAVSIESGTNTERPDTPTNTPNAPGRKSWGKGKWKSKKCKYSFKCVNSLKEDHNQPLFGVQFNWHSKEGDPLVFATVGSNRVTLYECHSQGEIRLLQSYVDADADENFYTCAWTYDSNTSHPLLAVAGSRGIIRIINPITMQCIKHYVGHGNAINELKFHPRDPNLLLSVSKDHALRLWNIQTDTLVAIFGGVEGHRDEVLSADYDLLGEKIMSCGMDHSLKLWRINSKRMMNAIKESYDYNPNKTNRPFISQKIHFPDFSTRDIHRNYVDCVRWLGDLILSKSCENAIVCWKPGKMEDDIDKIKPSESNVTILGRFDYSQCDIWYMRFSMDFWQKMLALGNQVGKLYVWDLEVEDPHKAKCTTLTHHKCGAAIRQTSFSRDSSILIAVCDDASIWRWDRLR
Sequence of PRC2 enzyme (Q15910 whole entry partner): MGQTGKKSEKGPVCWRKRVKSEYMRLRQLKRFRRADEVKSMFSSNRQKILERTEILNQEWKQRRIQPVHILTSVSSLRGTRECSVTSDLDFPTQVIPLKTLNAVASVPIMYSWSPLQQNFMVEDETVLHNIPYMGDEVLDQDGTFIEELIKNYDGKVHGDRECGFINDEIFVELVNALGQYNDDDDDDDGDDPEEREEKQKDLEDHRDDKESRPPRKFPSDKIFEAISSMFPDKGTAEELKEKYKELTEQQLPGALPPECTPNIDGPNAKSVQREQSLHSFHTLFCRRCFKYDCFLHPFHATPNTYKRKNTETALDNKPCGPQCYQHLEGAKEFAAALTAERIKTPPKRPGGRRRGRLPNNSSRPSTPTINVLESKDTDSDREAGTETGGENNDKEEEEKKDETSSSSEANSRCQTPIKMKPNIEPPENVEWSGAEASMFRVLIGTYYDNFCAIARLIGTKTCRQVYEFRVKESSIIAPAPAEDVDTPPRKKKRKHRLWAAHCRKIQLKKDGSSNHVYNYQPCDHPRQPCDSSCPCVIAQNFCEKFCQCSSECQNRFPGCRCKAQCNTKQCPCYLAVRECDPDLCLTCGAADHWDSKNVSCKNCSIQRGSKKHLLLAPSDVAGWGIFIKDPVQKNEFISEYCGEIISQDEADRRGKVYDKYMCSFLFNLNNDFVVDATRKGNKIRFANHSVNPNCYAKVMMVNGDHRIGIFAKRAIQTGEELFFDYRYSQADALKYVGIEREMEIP
Sequence of PRC2 enzyme (Q15022 whole entry partner): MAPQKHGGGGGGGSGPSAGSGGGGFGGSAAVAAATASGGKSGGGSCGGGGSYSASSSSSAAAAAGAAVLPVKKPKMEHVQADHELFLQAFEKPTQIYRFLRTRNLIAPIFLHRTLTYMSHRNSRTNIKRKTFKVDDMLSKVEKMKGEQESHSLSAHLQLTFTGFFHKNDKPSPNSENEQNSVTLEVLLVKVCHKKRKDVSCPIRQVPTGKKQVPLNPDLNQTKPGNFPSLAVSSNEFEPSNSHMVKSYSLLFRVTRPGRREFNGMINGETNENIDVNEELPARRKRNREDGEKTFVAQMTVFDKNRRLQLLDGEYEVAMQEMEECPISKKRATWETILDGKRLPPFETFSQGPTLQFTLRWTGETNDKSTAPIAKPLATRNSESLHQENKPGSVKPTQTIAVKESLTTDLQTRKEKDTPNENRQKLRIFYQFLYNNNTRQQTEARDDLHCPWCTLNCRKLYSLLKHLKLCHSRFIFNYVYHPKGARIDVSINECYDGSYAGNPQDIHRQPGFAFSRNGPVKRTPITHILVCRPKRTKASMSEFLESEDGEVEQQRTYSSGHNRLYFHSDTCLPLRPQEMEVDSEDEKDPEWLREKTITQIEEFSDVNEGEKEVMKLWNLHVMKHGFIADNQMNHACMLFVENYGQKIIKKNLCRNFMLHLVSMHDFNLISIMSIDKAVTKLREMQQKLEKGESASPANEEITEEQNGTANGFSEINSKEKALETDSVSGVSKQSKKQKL

SMILES: CS(=O)(=O)c1ccc(-c2cnc(NCc3ccco3)n3cnnc23)cc1 [EED226, reference compound]
IC50 (Pfeiffer cells [1]): 52 nM
IC50 (Karpas-422 cells; KARPAS-422, 264 h): 167 nM
AUC(0-t) [2]: 886 ± 336 ng·h/mL
AUC(0-inf) [2]: 915 ± 316 ng·h/mL
MRT inf [2]: 2.55 ± 1.08 h
half-life [2]: 1.63 ± 0.411 h
Cmax [2]: 464 ± 429 ng/mL
IC50 (Pfeiffer cells [3]): 44 nM
IC50 (PRC2 enzyme): 104 nM
IC50 (SU-DHL-4 cells; SU-DHL-4, 264 h): 95 nM

IC50 (Pfeiffer cells [1]; 11 days): 8 nM
Clearance rate in vivo Clint In Vivo Extpl ([4]; rat liver microsomes): 15.9 mL/min
Intrinsic clearance rate in vivo Clint In Vitro ([4]; rat liver microsomes): 35.2 mL/min/gprot
Liver clearance rate Clint Hep In Vivo Extpl ([4]; rat liver microsomes): 8.85 mL/min
Metabolic bioavailability MF % ([4]; rat liver microsomes): 55.8%
half-life ([4]; rat, liver microsomes, pH 7.4, rat liver microsomes, read-out: Half life T-half): 0.993 h
IC50 (Karpas-422 cells; 264 h, Karpas-422, 11 days): 19 nM
Clearance rate in vivo Clint In Vivo Extpl ([5]; mouse liver microsomes): 1.98 mL/min
Intrinsic clearance rate in vivo Clint In Vitro ([5]; mouse liver microsomes): 29.4 mL/min/gprot
Liver clearance rate Clint Hep In Vivo Extpl ([5]; mouse liver microsomes): 1.19 mL/min
Metabolic bioavailability MF % ([5]; mouse liver microsomes): 60.2%
half-life ([5]; mouse, liver microsomes, pH 7.4, mouse liver microsomes, read-out: Half life T-half): 1.19 h
AUC(0-t) [2]: 2200 ± 237 ng·h/mL
AUC(0-inf) [2]: 2200 ± 239 ng·h/mL
MRT inf [2]: 5.46 ± 0.342 h
half-life [2]: 2.32 ± 0.268 h
Cmax [2]: 302 ± 6.4 ng/mL
IC50 (Pfeiffer cells [3]; 14 days): 4 nM
Clearance rate in vivo Clint In Vivo Extpl ([6]; human liver microsomes): 1613 mL/min
Intrinsic clearance rate in vivo Clint In Vitro ([6]; human liver microsomes): 21.1 mL/min/gprot
Liver clearance rate Clint Hep In Vivo Extpl ([6]; human liver microsomes): 777 mL/min
half-life ([6]; human, liver microsomes, pH 7.4, human liver microsomes, read-out: Half life T-half): 1.66 h
bioavailability ([6]; human, liver microsomes, pH 7.4, human liver microsomes, read-out: Metabolic bioavailability MF %): 48.2%
IC50 (SU-DHL-4 cells; 264 h, SU-DHL-4, 11 days): 4 nM
SMILES: Fc1ccc2c(c1CNc1ncc(C3=CCOCC3)c3nncn13)CCO2 [E-Y1]
